Test system: Crude diglycosidase
Experiment: Examination of temperature in the conversion into isoflavone aglycons by diglycosidase using soybean materials
Assay type: biochemical, Penicillium multicolor IAM7153
Conditions: for maximum isolation of aglycons: reaction at 55° C. for 6 hours
In short: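 Temperature series (30-80° C.) of crude diglycosidase, diluted to 1.88 AU/mL in 20 mM acetate pH 4.0, acting on roasted soy flour, soymilk, defatted soybean or soy protein concentrate. Samples quenched with ethanol after 0-6 h, centrifuged, filtered and analyzed by HPLC for glycosides versus aglycons.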

SMILES: O=c1c(-c2ccc(O)cc2)coc2cc(O)cc(O)c12 [genistein]
- Decomposition efficiency of genistin family in defatted soybean (30° C., heat treatment of enzyme no, reaction time 1 h): 47.4%
- Decomposition efficiency of genistin family in defatted soybean (30° C., heat treatment of enzyme no, reaction time 3 h): 50.2%
- Decomposition efficiency of genistin family in defatted soybean (30° C., heat treatment of enzyme no, reaction time 6 h): 46.6%
- Decomposition efficiency of genistin family in defatted soybean (30° C., heat treatment of enzyme yes, reaction time 6 h): 50.2%
- Decomposition efficiency of genistin family in defatted soybean (45° C., heat treatment of enzyme no, reaction time 0 h): 14.5%
- Decomposition efficiency of genistin family in defatted soybean (45° C., heat treatment of enzyme no, reaction time 1 h): 49.2%
- Decomposition efficiency of genistin family in defatted soybean (45° C., heat treatment of enzyme no, reaction time 3 h): 51.8%
- Decomposition efficiency of genistin family in defatted soybean (45° C., heat treatment of enzyme no, reaction time 6 h): 54.6%
- Decomposition efficiency of genistin family in defatted soybean (45° C., heat treatment of enzyme yes, reaction time 6 h): 50.4%
- Decomposition efficiency of genistin family in defatted soybean (55° C., heat treatment of enzyme no, reaction time 1 h): 50.5%
- Decomposition efficiency of genistin family in defatted soybean (55° C., heat treatment of enzyme no, reaction time 3 h): 53.7%
- Decomposition efficiency of genistin family in defatted soybean (55° C., heat treatment of enzyme no, reaction time 6 h): 56.5%
- Decomposition efficiency of genistin family in defatted soybean (55° C., heat treatment of enzyme yes, reaction time 6 h): 51.9%
- Decomposition efficiency of genistin family in defatted soybean (65° C., heat treatment of enzyme no, reaction time 0 h): 14.5%
- Decomposition efficiency of genistin family in defatted soybean (65° C., heat treatment of enzyme no, reaction time 1 h): 49.9%
- Decomposition efficiency of genistin family in defatted soybean (65° C., heat treatment of enzyme no, reaction time 3 h): 51.8%
- Decomposition efficiency of genistin family in defatted soybean (65° C., heat treatment of enzyme no, reaction time 6 h): 54.5%
- Decomposition efficiency of genistin family in defatted soybean (65° C., heat treatment of enzyme yes, reaction time 6 h): 30.7%
- Decomposition efficiency of genistin family in defatted soybean (80° C., heat treatment of enzyme no, reaction time 0 h): 14.5%
- Decomposition efficiency of genistin family in defatted soybean (80° C., heat treatment of enzyme no, reaction time 1 h): 44.9%
- Decomposition efficiency of genistin family in defatted soybean (80° C., heat treatment of enzyme no, reaction time 3 h): 43.3%
- Decomposition efficiency of genistin family in defatted soybean (80° C., heat treatment of enzyme no, reaction time 6 h): 41.3%
- Decomposition efficiency of genistin family in defatted soybean (80° C., heat treatment of enzyme yes, reaction time 6 h): 19.6%
- maximum isolation of aglycons (concentrated soybean protein): about 61%
- maximum isolation of aglycons (defatted soybean): about 57%
- maximum isolation of aglycons (soy flour): about 74%
- maximum isolation of aglycons (soymilk): about 80%
